Among the data in the NIST ThermoML archive (doi:10.1021/je2009208) are refractive index and mass density values, retold here.

± gives the expanded uncertainty stated by the source.

Data set [1] in a line: refractive index (Na D-line) (dimensionless). As to conditions: 293.15 K; 101.33 kPa; Liquid; Standard Abbe refractometry.
The conditions of data set [2]: 298.15 K; 101.33 kPa; Liquid; Vibrating tube method.

In the case of `C=CC#N` [acrylonitrile], the refractive index (as a rule, the speed of light in vacuum divided by its phase velocity in the sample) in data set [1] is 1.3908 ± 0.0008. The mass density (as a rule, mass per unit of volume) in data set [2] was 800.6 ± 0.2 kg/m3.
Take `CO` [methanol]: in data set [1], the refractive index came to 1.3286 ± 0.0008. In addition, the mass density in data set [2] is 791.3 ± 0.2 kg/m3.
On to `O` [water], for which the refractive index in data set [1] stood at 1.3333 ± 0.0008.
